pIC50: −log10 of the molar value.

The target in this test is T1, human SLC6A19 and TMEM27 (Homo sapiens, UniProt Q695T7).
T1 construct: expressed in transfected cells
T1 sequence (Q695T7 1-634): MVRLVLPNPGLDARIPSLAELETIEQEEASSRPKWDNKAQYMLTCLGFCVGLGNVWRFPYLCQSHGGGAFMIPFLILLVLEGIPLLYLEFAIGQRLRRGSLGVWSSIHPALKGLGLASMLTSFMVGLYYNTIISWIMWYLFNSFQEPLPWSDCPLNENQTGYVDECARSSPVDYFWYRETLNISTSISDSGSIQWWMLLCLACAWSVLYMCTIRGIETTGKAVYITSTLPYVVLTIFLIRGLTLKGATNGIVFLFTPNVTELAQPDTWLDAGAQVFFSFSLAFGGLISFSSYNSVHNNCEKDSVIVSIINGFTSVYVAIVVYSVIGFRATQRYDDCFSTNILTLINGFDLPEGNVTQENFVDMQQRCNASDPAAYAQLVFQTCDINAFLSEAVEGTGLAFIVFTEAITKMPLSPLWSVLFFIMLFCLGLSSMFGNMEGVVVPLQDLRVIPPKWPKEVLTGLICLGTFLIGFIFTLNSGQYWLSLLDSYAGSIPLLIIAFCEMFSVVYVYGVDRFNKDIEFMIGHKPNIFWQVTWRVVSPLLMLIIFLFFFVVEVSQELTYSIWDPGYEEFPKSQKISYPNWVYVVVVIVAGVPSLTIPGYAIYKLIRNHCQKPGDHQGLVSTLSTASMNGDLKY
T1 sequence (Q9HBJ8 15-222 partner): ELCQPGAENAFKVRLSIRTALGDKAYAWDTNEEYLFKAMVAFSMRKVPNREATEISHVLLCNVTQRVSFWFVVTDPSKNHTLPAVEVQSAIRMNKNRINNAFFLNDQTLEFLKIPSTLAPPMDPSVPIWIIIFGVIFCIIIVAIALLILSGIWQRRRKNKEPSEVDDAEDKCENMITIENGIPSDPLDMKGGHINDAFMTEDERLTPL
Kind of test: Radiolabelled (3H) leucine uptake in CHO cells with doxycycline-inducible expression of human SLC6A19 and TMEM27 (Example B-1). It counts as cell-based. The settings on record: CHO cells with doxycycline-inducible expression of human SLC6A19 and TMEM27, read-out: SLC6A19_Radioligand Uptake Assay IC50. In a few lines: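 CHO cells were induced with doxycycline for 18 h at 37 °C, washed in HBSS, then exposed to compounds for 1 h: 8-point, 3-fold dilutions in duplicate, 0.5% DMSO final. Uptake measured by scintillation counting after 2 h shaking. Activity normalized with positive control as 0% and DMSO as 100%.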
For `C[C@@H]1CCN1C(=O)NCc1cc2cc(Cl)c(OCc3ccon3)cc2[nH]1` [Compound 363, (R)-N-((5-chloro-6-(isoxazol-3-ylmethoxy)-1H-indol-2-yl)methyl)-2-methylazetidine-1-carboxamide], the pIC50 (in general, the negative decadic logarithm of the IC50, by convention in mol/L) is 6.48. Regarding `COC1CN(C(=O)NCc2cc3cc(Cl)c(OCc4cscn4)cc3[nH]2)C1` [Compound 364, N-((5-chloro-6-(thiazol-4-ylmethoxy)-1H-indol-2-yl)methyl)-3-methoxyazetidine-1-carboxamide], the negative-log IC50 (pIC50) was 6.16. Then `O=C(NCc1cc2cc(Cl)c(OCc3cscn3)cc2[nH]1)N1CC(O)C1` [Compound 367, N-((5-chloro-6-(thiazol-4-ylmethoxy)-1H-indol-2-yl)methyl)-3-hydroxyazetidine-1-carboxamide], with 5.91; and `O=C(NCc1cc2cc(Cl)c(OCc3cscn3)cc2[nH]1)N1CC(CO)C1` [Compound 368, N-((5-chloro-6-(thiazol-4-ylmethoxy)-1H-indol-2-yl)methyl)-3-(hydroxymethyl)azetidine-1-carboxamide], with less than 5.26. Turning to `CCNC(=O)NCc1cc2cc(Cl)c(OCc3cc(C)no3)cc2[nH]1` [Compound 369, 1-((5-chloro-6-((3-methylisoxazol-5-yl)methoxy)-1H-indol-2-yl)methyl)-3-ethylurea], the pIC50 is 6.90. As for `Cc1cc(COc2cc3[nH]c(CNC(=O)N4CC(F)(F)C4)cc3cc2Cl)on1` [Compound 370, N-((5-chloro-6-((3-methylisoxazol-5-yl)methoxy)-1H-indol-2-yl)methyl)-3,3-difluoroazetidine-1-carboxamide], the pIC50 was 6.31. Then `Cc1cc(COc2cc3[nH]c(CNC(=O)NCCF)cc3cc2Cl)on1` [Compound 371, 1-((5-chloro-6-((3-methylisoxazol-5-yl)methoxy)-1H-indol-2-yl)methyl)-3-(2-fluoroethyl)urea], with 6.85. Take `Cc1cc(COc2cc3[nH]c(CNC(=O)N4CC(F)C4)cc3cc2Cl)on1` [Compound 372, N-((5-chloro-6-((3-methylisoxazol-5-yl)methoxy)-1H-indol-2-yl)methyl)-3-fluoroazetidine-1-carboxamide]: the negative-log IC50 (pIC50) is 6.60. `Cc1cc(COc2cc3[nH]c(CNC(=O)NCC(F)F)cc3cc2Cl)on1` [Compound 374, 1-((5-chloro-6-((3-methylisoxazol-5-yl)methoxy)-1H-indol-2-yl)methyl)-3-(2,2-difluoroethyl)urea]: the pIC50 is 6.39. Take `Cc1cc(COc2cc3[nH]c(CNC(=O)N4CCC4C#N)cc3cc2Cl)on1` (stereo not shown) [Compound 376, N-((5-chloro-6-((3-methylisoxazol-5-yl)methoxy)-1H-indol-2-yl)methyl)-2-cyanoazetidine-1-carboxamide]: the pIC50 was 5.67.

`Cc1cc(COc2cc3[nH]c(CNC(=O)N4CCC(C(F)F)C4)cc3cc2Cl)on1` (stereo not shown) [Compound 377, N-((5-chloro-6-((3-methylisoxazol-5-yl)methoxy)-1H-indol-2-yl)methyl)-3-(difluoromethyl)pyrrolidine-1-carboxamide]: the pIC50 was 6.07.

Take `Cc1cc(COc2cc3[nH]c(CNC(=O)N4CCC45COC5)cc3cc2Cl)on1` [Compound 378, N-((5-chloro-6-((3-methylisoxazol-5-yl)methoxy)-1H-indol-2-yl)methyl)-6-oxa-1-azaspiro[3.3]heptane-1-carboxamide]: the pIC50 is 5.26. In the case of `COCCNC(=O)NCc1cc2cc(Cl)c(OCc3cscn3)cc2[nH]1` [Compound 380, 1-((5-chloro-6-(thiazol-4-ylmethoxy)-1H-indol-2-yl)methyl)-3-(2-methoxyethyl)urea], the pIC50 was 5.95. As to `C[C@@H]1CCN(C(=O)NCc2cc3cc(F)c(OCc4ccon4)cc3[nH]2)C1` [Compound 381, (R)-N-((5-fluoro-6-(isoxazol-3-ylmethoxy)-1H-indol-2-yl)methyl)-3-methylpyrrolidine-1-carboxamide], the pIC50 is 6.47. The result for `C[C@H]1CCN(C(=O)NCc2cc3cc(F)c(OCc4ccon4)cc3[nH]2)C1` [Compound 382, (S)-N-((5-fluoro-6-(isoxazol-3-ylmethoxy)-1H-indol-2-yl)methyl)-3-methylpyrrolidine-1-carboxamide] reads 6.38; that for `C[C@@H]1CCCN1C(=O)NCc1cc2cc(F)c(OCc3ccon3)cc2[nH]1` [Compound 383, (R)-N-((5-fluoro-6-(isoxazol-3-ylmethoxy)-1H-indol-2-yl)methyl)-2-methylpyrrolidine-1-carboxamide], 6.75. For `C[C@H]1CCCN1C(=O)NCc1cc2cc(F)c(OCc3ccon3)cc2[nH]1` [Compound 384, (S)-N-((5-fluoro-6-(isoxazol-3-ylmethoxy)-1H-indol-2-yl)methyl)-2-methylpyrrolidine-1-carboxamide], the pIC50 was 5.80. The result for `C[C@H]1CCCN1C(=O)NCc1cc2cc(F)c(OCc3cscn3)cc2[nH]1` [Compound 385, (S)-N-((5-fluoro-6-(thiazol-4-ylmethoxy)-1H-indol-2-yl)methyl)-2-methylpyrrolidine-1-carboxamide] reads 6.26; that for `C[C@@H]1CCCN1C(=O)NCc1cc2cc(F)c(OCc3cscn3)cc2[nH]1` [Compound 386, (R)-N-((5-fluoro-6-(thiazol-4-ylmethoxy)-1H-indol-2-yl)methyl)-2-methylpyrrolidine-1-carboxamide], 6.76; that for `C[C@@H]1CCN(C(=O)NCc2cc3cc(F)c(OCc4cscn4)cc3[nH]2)C1` [Compound 387, (R)-N-((5-fluoro-6-(thiazol-4-ylmethoxy)-1H-indol-2-yl)methyl)-3-methylpyrrolidine-1-carboxamide], 6.68. The result for `C[C@H]1CCN(C(=O)NCc2cc3cc(F)c(OCc4cscn4)cc3[nH]2)C1` [Compound 388, (S)-N-((5-fluoro-6-(thiazol-4-ylmethoxy)-1H-indol-2-yl)methyl)-3-methylpyrrolidine-1-carboxamide] reads 6.47. Then `CSc1cc2cc(CNC(=O)C3(C)CC3)[nH]c2cc1OCc1ccon1` [Compound 391, N-((6-(isoxazol-3-ylmethoxy)-5-(methylthio)-1H-indol-2-yl)methyl)-1-methylcyclopropane-1-carboxamide], with 6.65; and `CC1(C(=O)NCc2cc3cc(Cl)c(OCCC4CCC4)cc3[nH]2)CC1` [Compound 394, N-((5-chloro-6-(2-cyclobutylethoxy)-1H-indol-2-yl)methyl)-1-methylcyclopropane-1-carboxamide], with 6.17. Regarding `Cc1cc(COc2cc3[nH]c(CNC(=O)C4(C)CC4)cc3cc2Cl)sn1` [Compound 398, N-((5-chloro-6-((3-methylisothiazol-5-yl)methoxy)-1H-indol-2-yl)methyl)-1-methylcyclopropane-1-carboxamide], the negative logarithm of the IC50 (pIC50) is 6.22.

Turning to `Cc1cc(COc2cc3[nH]c(CNC(=O)C4(C)CC4)cc3cc2Cl)ns1` [Compound 399, N-((5-chloro-6-((5-methylisothiazol-3-yl)methoxy)-1H-indol-2-yl)methyl)-1-methylcyclopropane-1-carboxamide], the pIC50 is 6.37. Turning to `CC1(C(=O)NCc2cc3cc(Cl)c(OCc4ncsc4Cl)cc3[nH]2)CC1` [Compound 400, N-((5-chloro-6-((5-chlorothiazol-4-yl)methoxy)-1H-indol-2-yl)methyl)-1-methylcyclopropane-1-carboxamide], the pIC50 was 6.25. Then `O=C(NCc1cc2cc(OC(F)(F)F)c(OCc3ccon3)cc2[nH]1)N1CCC1` [Compound 416, N-((6-(isoxazol-3-ylmethoxy)-5-(trifluoromethoxy)-1H-indol-2-yl)methyl)azetidine-1-carboxamide], with 6.42; and `O=C(NCc1cc2cc(OC(F)(F)F)c(OCc3cocn3)cc2[nH]1)N1CCCC1` [Compound 417, N-((6-(oxazol-4-ylmethoxy)-5-(trifluoromethoxy)-1H-indol-2-yl)methyl)pyrrolidine-1-carboxamide], with 6.40. With `O=C(NCc1cc2cc(Cl)c(CCc3cscn3)cc2[nH]1)N1CCCC1` [Compound 418, N-((5-chloro-6-(2-(thiazol-4-yl)ethyl)-1H-indol-2-yl)methyl)pyrrolidine-1-carboxamide], the pIC50 was 6.79. Regarding `O=C(NCc1cc2cc(OC(F)(F)F)c(OCc3ccon3)cc2[nH]1)N1CCCC1` [Compound 420, N-((6-(isoxazol-3-ylmethoxy)-5-(trifluoromethoxy)-1H-indol-2-yl)methyl)pyrrolidine-1-carboxamide], the pIC50 was 6.45.

Regarding `O=C(NCc1cc2c(F)cc(OCc3cscn3)cc2[nH]1)N1CCC1` [Compound 422, N-((4-fluoro-6-(thiazol-4-ylmethoxy)-1H-indol-2-yl)methyl)azetidine-1-carboxamide], the pIC50 was 6.47.

Source of the values: patent US20240199546A1, “INHIBITORS OF SOLUTE CARRIER FAMILY 6A MEMBER 19 (SLC6A19) AND METHODS OF USE THEREOF” (Maze Therapeutics, Inc., priority 2022, published 2024).
